US20050074488A1, “Use of vitamin Ds to down regulate the renin-angiotensin-aldosterone system” (priority 2003, published 2005)

Legend:
[1] = system: PAI-1; assay: Western blot of PAI-1 in primary culture of human coronary artery smooth muscle cells; assay type: cell-based
[2] = cited from earlier work
[3] = system: renin gene promotor; assay: renin promoter-luciferase assay; assay type: cell-based; conditions: FIG. 2
Experimental: (§1) Using an in vitro system, an examination was carried out in order to determine the ability of paricalcitol to suppress renin expression. […] This inhibitory activity is confirmed by renin promoter-luciferase assays, which examine the activity of paricalcitol to suppress renin gene transcription.

[4] = system: 24(OH)ase; assay: effect of drugs on the expression of 24(OH)ase; assay type: cell-based
Experimental: Two observations may be noted in these studies: (1) 100% inhibition of growth was never achieved even at 1 μM of any of the test compound. Confocal microscopy studies confirm that, although these drugs are potent in inducing the translocation of VDR from cytoplasm to nucleus, not all cells respond to VDRAs even after 2 h of exposure, which may explain the <100% inhibition.

[5] = system: renin mRNA expression; assay: Northern blot analysis of renin mRNA expression in As4.1-hVDR cells; assay type: cell-based
Experimental: as §1

SMILES	potency in reducing the PAI level [1]	survival benefit for CKD patients relative to calcitriol ([2]; CKD patients)	potency in the clinical studies relative to calcitriol ([2]; clinical studies)	suppressing the activity of the renin gene promotor, relative to calcitriol [3]	potency on stimulating the expression of 24(OH)ase relative to calcitriol [4]	renin-inhibiting activity relative to calcitriol ([5]; FIG. 1A and B)	inhibition of renin mRNA expression ([5]; Northern blot, FIG. 1)
C=C1/C(=C\C=C2/CCC[C@]3(C)[C@@H]([C@H](C)CCCC(C)(C)O)CC[C@@H]23)C[C@@H](O)C[C@@H]1O [calcitriol]	equally potent	–	–	–	–	–	–
C[C@H](/C=C/[C@H](C)C(C)(C)O)[C@H]1CC[C@H]2/C(=C/C=C3C[C@@H](O)C[C@H](O)C3)CCC[C@]12C [paricalcitol]	equally potent	more profound for paricalcitol over calcitriol	less potent than calcitriol	as least as potent as calcitriol	less potent than calcitriol	a bit more potent than calcitriol	dose-dependently inhibits renin mRNA expression
